How the values were obtained:
[1] = test system: extracellular uptake receptor (LDLR); experiment: Expression of cholesterol regulation and tumor invasion molecules (FIG. 8); assay type: cell-based
PLC/PRF/5 [2] = experiment: CCK8 experiment, proliferation of liver cancer cell line; assay type: cell-based, human
Description: (§1) 1) On the first day, after routine trypsinization and counting of cells in a 60 mm culture dish, 5000 cells/well, inoculated 4 96-well plates.
(§2) 2) On the second day, after about 24 hours of culture, the cell growth was in the logarithmic phase. Replaced with a new culture medium added with different concentrations of SOAT1 inhibitor, 100 μl/well, set 10 μM, 20 μM concentration group and control group respectively, the control group was 1% DMSO, each group had 3 repetitive wells. Took a 96-well plate and added 10% CCK8, 100 μl/well, and measured the OD value at 0 hour at 450 nm wavelength after 1 hour. Cell-free well was a blank background.
(§3) 3) On the third day, added 10% CCK8 to a 96-well plate, and measured the OD value at 24 hours at 450 nm wavelength after 1 hour.
(§4) 4) On the fourth day, added 10% CCK8 to a 96-well plate, and measured the OD value at 48 hours at 450 nm wavelength after 1 hour.
(§5) 5) On the fifth day, added 10% CCK8 to a 96-well plate, and measured the OD value at 72 hours at 450 nm wavelength after 1 hour.
(§6) 6) Summarized the OD values at all time points and drew growth curves. 8. Cell migration experiment

[3] = test system: transcription factor SREBF2; experiment: Expression of cholesterol regulation and tumor invasion molecules (FIG. 8); assay type: cell-based
ITGB4 = experiment: as above; assay type: cell-based
PLC/PRF/5 [4] = experiment: Cell migration experiment (transwell); assay type: cell-based, human; conditions: 20-24 hours, Avasimibe concentration 10 μM or SOAT1 knockdown
Description: as §6
(§7) (1) Starving cells: Withdrew the whole medium, washed twice with PBS, and replaced with serum-free DMEM.
(§8) (2) Added 2.5% serum of DMEM to the transwell lower chamber, 600 ul/well. Equilibrated overnight in a 37° C. incubator. Thetranswell chamber was 3422 of
(§9) (3) Added trypsin to digest the hungry cells from yesterday (about 30-50 seconds at room temperature), quickly and carefully sucked up the trypsin, added 1 ml of complete medium, and collected in a 1.5 ml centrifuge tube;
(§10) (4) Centrifuged at 800 rpm for 4 min; discarded the supernatant, added serum-free DMEM, and washed once; centrifuged again for 4 min at 800 rpm; discarded the supernatant and added 0.5% FBS in DMEM;
(§11) 100 μl/well was added to the tanswell upper chamber. The third day (20-24 hours later): (6) Discarded the culture medium; (7) Fixed with anhydrous methanol for 20 minutes; (8) Air-dried the film; (9) Pinched the cotton of the cotton swab to flat and rotated it to clean the upper chamber cells. Wrapped the tweezers with a cotton ball to gently wipe off the edge cells. (10) 0.5% crystal violet staining; (11) Rinsed slowly with clean water; (12) Observed and took pictures under an inverted microscope. 9. Western blot detection was done by conventional methods. 10. Statistical analysis

HepG2 [5] = experiment: Cell migration experiment (transwell); assay type: cell-based, human; conditions: 20-24 hours, Avasimibe concentration 10 μM or SOAT1 knockdown
Description: as §6, §7, §8, §9, §10, §11

ITGAV = experiment: Expression of cholesterol regulation and tumor invasion molecules (FIG. 8); assay type: cell-based
Huh7 = experiment: CCK8 experiment, proliferation of liver cancer cell line; assay type: cell-based, human; conditions: for effect on proliferation: Huh7, CCK8 growth curves 0-72 hours, inhibitor 10 μM, 20 μM
Description: (§12) 7. CCK8 experiment 1) On the first day, after routine trypsinization and counting of cells in a 60 mm culture dish, 5000 cells/well, inoculated 4 96-well plates. 2) On the second day, after about 24 hours of culture, the cell growth was in the logarithmic phase. […] Took a 96-well plate and added 10% CCK8, 100 μl/well, and measured the OD value at 0 hour at 450 nm wavelength after 1 hour. Cell-free well was a blank background. 3) On the third day, added 10% CCK8 to a 96-well plate, and measured the OD value at 24 hours at 450 nm wavelength after 1 hour. 4) On the fourth day, added 10% CCK8 to a 96-well plate, and measured the OD value at 48 hours at 450 nm wavelength after 1 hour. 5) On the fifth day, added 10% CCK8 to a 96-well plate, and measured the OD value at 72 hours at 450 nm wavelength after 1 hour. 6) Summarized the OD values at all time points and drew growth curves. 8. Cell migration experiment

MHCC97H = experiment: as above; assay type: cell-based, human; conditions: for effect on proliferation: CCK8 growth curves 0-72 hours, inhibitor 10 μM, 20 μM
Description: as §12

HepG2 [6] = experiment: as above; assay type: cell-based, human; conditions: CCK8 growth curves 0-72 hours, inhibitor 10 μM, 20 μM or SOAT1 knockdown
TGFBR1 = experiment: Expression of cholesterol regulation and tumor invasion molecules (FIG. 8); assay type: cell-based
[7] = test system: colon cancer HCT116 cell line; experiment: Proliferation of other tumor cell lines; assay type: cell-based, human; conditions: HCT116, FIG. 7
Description: as §1, §2, §3, §4, §5, §6

[8] = test system: leukemia Jurkat cell line; experiment: Proliferation of other tumor cell lines; assay type: cell-based, human; conditions: FIG. 7
Description: as §1, §2, §3, §4, §5, §6

[9] = test system: non-small cell lung cancer A549 cell line; experiment: Proliferation of other tumor cell lines; assay type: cell-based, human; conditions: A549, FIG. 7
Description: as §1, §2, §3, §4, §5, §6

[10] = test system: Cervical cancer Hela cell line; experiment: Proliferation of other tumor cell lines; assay type: cell-based, human; conditions: FIG. 7
Description: as §1, §2, §3, §4, §5, §6

[11] = test system: breast cancer MCF7 cell line; experiment: Proliferation of other tumor cell lines; assay type: cell-based, human; conditions: MCF7, FIG. 7
Description: as §1, §2, §3, §4, §5, §6

[12] = test system: esophageal cancer ECA109 cell line; experiment: Proliferation of other tumor cell lines; assay type: cell-based, human; conditions: ECA109, FIG. 7
Description: as §1, §2, §3, §4, §5, §6

| effect on expression of LDLR [1] | IC50 (PLC/PRF/5 [2]; PLC/PRF/5, FIG. 5A) [µM] | IC50 (Huh7; Huh7, FIG. 5A) [µM] | IC50 (MHCC97H; FIG. 5A) [µM] | Compound | effect on proliferation (PLC/PRF/5 [2]; PLC/PRF/5, CCK8 growth curves 0-72 hours, inhibitor 10 μM, 20 μM or SOAT1 knockdown) | effect on expression of SREBF2 [3] | effect on expression of ITGB4 (ITGB4) | effect on migration (PLC/PRF/5 [4]) | effect on migration (HepG2 [5]) | effect on expression of ITGAV (ITGAV) | effect on proliferation (Huh7) | effect on proliferation (MHCC97H) | effect on proliferation (HepG2 [6]) | effect on expression of TGFBR1 (TGFBR1) | effect on proliferation [7] | effect on proliferation [8] | effect on proliferation [9] | effect on proliferation [10] | effect on proliferation [11] | effect on proliferation [12] |
| --- | --- | --- | --- | --- | --- | --- | --- | --- | --- | --- | --- | --- | --- | --- | --- | --- | --- | --- | --- | --- |
| significantly inhibit the expression | 6.9 | 6.8 | 25.2 | Avasimibe | significantly inhibit the proliferation | significantly inhibit the expression | significantly inhibit the expression | significantly reduce the migration | significantly reduce the migration | significantly inhibit the expression | significantly inhibit the proliferation | significantly inhibit the proliferation | significantly inhibit the proliferation | significantly inhibit the expression | significantly inhibited the proliferation | significantly inhibited the proliferation | significantly inhibited the proliferation | significantly inhibited the proliferation | significantly inhibited the proliferation | significantly inhibited the proliferation |
| – | – | – | – | CSc1cc(C)nc(SC)c1NC(=O)CN1CCN(CCSc2nc3ccccc3[nH]2)CC1.Cl [K604, 2-[4-[2-(benzimidazol-2-ylthio)ethyl]piperazin-lyl]-N-[2,4-bis(methylthio)-6-methyl-3-pyridyl]acetamide] | – | – | – | – | – | – | significantly inhibited the proliferation | significantly inhibited the proliferation | – | – | – | – | – | – | – | – |

Source: US12540943B2, “Use of Acyl coenzyme A: cholesterol acyltransferase-1 in diagnosis and treatment of liver cancer” (ACADEMY OF MILITARY MEDICAL SCIENCES, priority 2018, dated 2026)
